Source: patent US20110130432A1, “Heterocyclic Carboxamides For Use As Thrombin Inhibitors” (ASTRAZENECA AB, priority 2008, published 2011)

Molecular target: T1, Human α-thrombin (Homo sapiens, UniProt P00734)
T1 construct: Human α-thrombin; purchased Sigma Chemical Co. or Hematologic Technologies
Test: Test A: Determination of Thrombin Inhibition with a Chromogenic, Robotic Assay
Format: biochemical
Details: chromogenic substrate S-2366 0.30 mmol/L, α-thrombin 0.020 NIHU/mL, 40 minutes incubation at 37° C.
Description: Determination of Thrombin Inhibition with a Chromogenic, Robotic Assay
The thrombin inhibitor potency is measured with a chromogenic substrate method, in a Plato 3300 robotic microplate processor (Rosys AG, CH-8634 Hombrechtikon, Switzerland), using 96-well, half volume microtitre plates (Costar, Cambridge, Mass., USA; Cat No 3690). Stock solutions of test substance in DMSO (72 μL), 0.1-1 mmol/L, are diluted serially 1:3 (24+48 μL) with DMSO to obtain ten different concentrations, which are analyzed as samples in the assay. 2 μL of test sample is diluted with 124 μL assay buffer, 12 μL of chromogenic substrate solution (S-2366, Chromogenix, Mölndal, Sweden) in assay buffer and finally 12 μL of α-thrombin solution (Human α-thrombin, Sigma Chemical Co. or Hematologic Technologies) in assay buffer, are added, and the samples mixed. The final assay concentrations are: test substance […], S-2366 0.30 mmol/L, α-thrombin 0.020 NIHU/mL The linear absorbance increment during 40 minutes incubation at 37° C. is used for calculation of percentage inhibition for the test samples, as compared to blanks without inhibitor. The IC50 value, corresponding to the inhibitor concentration which causes 50% inhibition of the thrombin activity, is calculated from a log concentration vs. % inhibition curve.

## O=C(NCc1cc(Cl)ccc1-n1cnnn1)[C@@H]1CCNN1C(=O)C(O)c1ccc(F)cc1F (stereo partly drawn) [Example 51, (3S)—N-[5-Chloro-2-(1H-tetrazol-1-yl)benzyl]-2-[(2,4-difluorophenyl)(hydroxy)acetyl]pyrazolidine-3-carboxamide]
  IC50: 63 nM

## O=C(NCc1cc(Cl)ccc1-n1cnnn1)[C@@H]1CCNN1C(=O)[C@H](O)c1ccc(F)cc1 [Example 52, (3S)—N-[5-Chloro-2-(1H-tetrazol-1-yl)benzyl]-2-[(2R)-2-(4-fluorophenyl)-2-hydroxyacetyl]pyrazolidine-3-carboxamide]
  IC50: 8.4 nM

## O=C(NCc1cc(Cl)ccc1-n1cnnn1)[C@@H]1CCON1C(=O)[C@H](O)c1ccc(F)cc1 [Example 31, (3S)—N-[5-Chloro-2-(1H-tetrazol-1-yl)benzyl]-2-[(2R)-2-(4-fluorophenyl)-2-hydroxyacetyl]isoxazolidine-3-carboxamide]
  IC50: 9.7 nM

## CC(C)(C)OC[C@@H](N)C(=O)N1OCC[C@H]1C(=O)NCc1cc(Cl)ccc1-n1cnnn1 [Example 32, (3S)-2-(O-tert-Butyl-D-seryl)-N-[5-chloro-2-(1H-tetrazol-1-yl)benzyl]isoxazolidine-3-carboxamide]
  IC50: 170 nM

## N#Cc1cccc(C(O)C(=O)N2OCC[C@H]2C(=O)NCc2cc(Cl)ccc2-n2cnnn2)c1 (stereo partly drawn) [Example 48, (3S)—N-[5-Chloro-2-(1H-tetrazol-1-yl)benzyl]-2-[(3-cyanophenyl)(hydroxy)acetyl]isoxazolidine-3-carboxamide]
  IC50: 92 nM

## O=C(NCc1cc(Cl)ccc1-n1cnnn1)[C@@H]1CC=NN1C(=O)C1(O)CCOc2ccccc21 (stereo partly shown) [Example 12]
  IC50: 130 nM

## CC(C)(C)C[C@@H](N)C(=O)N1N=CC[C@H]1C(=O)NCc1cc(Cl)ccc1-n1cnnn1 [Example 18, (5S)—N-[5-Chloro-2-(1H-tetrazol-1-yl)benzyl]-1-(4-methyl-D-leucyl)-4,5-dihydro-1H-pyrazole-5-carboxamide]
  IC50: 3.5 nM
